Measurements as given in the supplement of paper PMC10307832.

Experiments:
Experiment in all cases: relative viability (nuclei count vs DMSO), 5 days (fraction); higher = more cells survive
[1] = compound: C/C(=N\NC(=S)N1CCC1)/C2=CC=CC=N2 + COc1cccc2cc(-c3nc([C@H]4CC[C@H](C(=O)O)CC4)n4ncnc(N)c34)[nH]c12 [OSI-027] (partner 0.5 µM)
Summary of the method: (§1)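 Five library-drug doses in √10 steps were combined with a fixed anchor-drug dose, or a single drug was given alone, by pin tool to lung cancer cell lines in 1536-well plates the day after seeding. Nuclei were stained and counted after 5 days. Relative viability is the nuclei count in treated wells over that in vehicle wells, taken as the median of duplicate plates.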

[2] = compound: C/C(=N\NC(=S)N1CCC1)/C2=CC=CC=N2 + C[C@@H](Oc1cc(-c2cnn(C3CCNCC3)c2)cnc1N)c1c(Cl)ccc(F)c1Cl [Crizotinib] (partner 1 µM)
Summary of the method: as §1

[3] = compound: C/C(=N\NC(=S)N1CCC1)/C2=CC=CC=N2 + N=C(N)NC(=N)NCCc1ccccc1 [Phenformin] (partner 250 µM)
Summary of the method: as §1

[4] = compound: C/C(=N\NC(=S)N1CCC1)/C2=CC=CC=N2 + CC(=O)Nc1cccc(-n2c(=O)n(C3CC3)c(=O)c3c(Nc4ccc(I)cc4F)n(C)c(=O)c(C)c32)c1 [Trametinib] (partner 0.02 µM)
Summary of the method: as §1

| Cell Line | relative viability ([1]; first compound 0.05 µM) | relative viability ([1]; first compound 0.1581 µM) | relative viability ([1]; first compound 0.5 µM) | relative viability ([1]; first compound 1.581 µM) | relative viability ([1]; first compound 5 µM) | relative viability ([2]; first compound 0.05 µM) | relative viability ([2]; first compound 0.1581 µM) | relative viability ([2]; first compound 0.5 µM) | relative viability ([2]; first compound 1.581 µM) | relative viability ([2]; first compound 5 µM) | relative viability ([3]; first compound 0.05 µM) | relative viability ([3]; first compound 0.1581 µM) | relative viability ([3]; first compound 0.5 µM) | relative viability ([3]; first compound 1.581 µM) | relative viability ([3]; first compound 5 µM) | relative viability ([4]; first compound 0.05 µM) | relative viability ([4]; first compound 0.1581 µM) | relative viability ([4]; first compound 0.5 µM) | relative viability ([4]; first compound 1.581 µM) | relative viability ([4]; first compound 5 µM) |
| --- | --- | --- | --- | --- | --- | --- | --- | --- | --- | --- | --- | --- | --- | --- | --- | --- | --- | --- | --- | --- |
| HCC-366 | 0.0452 | 0.0275 | 0.0339 | 0.0481 | 0.0279 | 0.0857 | 0.0157 | 0.0133 | 0.0162 | 0.018 | 0.0354 | 0.0736 | 0.0328 | 0.0375 | 0.0286 | 0.0818 | 0.0309 | 0.0211 | 0.0256 | 0.025 |
| HCC-827 | 0.288 | 0.281 | 0.156 | 0.176 | 0.168 | 0.675 | 0.894 | 0.307 | 0.296 | 0.204 | 0.222 | 0.239 | 0.201 | 0.173 | 0.175 | 0.377 | 0.269 | 0.211 | 0.214 | 0.176 |
| HOP-62 | 0.104 | 0.0907 | 0.101 | 0.111 | 0.102 | 0.218 | 0.626 | 0.0574 | 0.0819 | 0.0635 | 0.0721 | 0.0624 | 0.0719 | 0.0958 | 0.0779 | 0.216 | 0.212 | 0.112 | 0.131 | 0.112 |
| IA-LM | – | – | – | – | – | 0.0891 | 0.0621 | 0.0599 | 0.0518 | 0.0471 | – | – | – | – | – | – | – | – | – | – |
| LC-2-ad | 0.282 | 0.295 | 0.277 | 0.179 | 0.227 | 0.226 | 0.207 | 0.198 | 0.171 | 0.143 | 0.29 | 0.277 | 0.259 | 0.19 | 0.226 | 0.238 | 0.222 | 0.223 | 0.232 | 0.231 |
| LCLC-97TM1 | 0.111 | 0.175 | 0.185 | 0.138 | 0.158 | 0.155 | 0.307 | 0.103 | 0.0898 | 0.119 | 0.128 | 0.189 | 0.109 | 0.166 | 0.139 | 0.0885 | 0.152 | 0.0765 | 0.0664 | 0.0773 |
| LCLC-103H | 0.178 | 0.22 | 0.217 | 0.2 | 0.19 | 0.838 | 0.917 | 0.321 | 0.335 | 0.3 | 0.17 | 0.172 | 0.21 | 0.129 | 0.187 | 0.303 | 0.622 | 0.324 | 0.357 | 0.256 |
| LK-2 | 0.141 | 0.174 | 0.177 | 0.167 | 0.142 | 0.197 | 0.255 | 0.266 | 0.226 | 0.215 | 0.119 | 0.185 | 0.13 | 0.085 | 0.151 | 0.174 | 0.187 | 0.184 | 0.146 | 0.159 |
| LOU-NH91 | 0.412 | 0.476 | 0.447 | 0.388 | 0.396 | 0.515 | 0.471 | 0.476 | 0.45 | 0.472 | 0.371 | 0.403 | 0.352 | 0.262 | 0.419 | 0.632 | 0.6 | 0.583 | 0.512 | 0.452 |
| LU99A | 0.186 | 0.182 | 0.161 | 0.162 | 0.177 | 0.23 | 0.0986 | 0.168 | 0.133 | 0.143 | 0.163 | 0.189 | 0.145 | 0.143 | 0.178 | 0.186 | 0.405 | 0.183 | 0.152 | 0.146 |
| LXF-289 | 0.2 | 0.223 | 0.222 | 0.146 | 0.0943 | 0.417 | 0.287 | 0.24 | 0.168 | 0.121 | 0.22 | 0.203 | 0.202 | 0.2 | 0.0793 | 0.284 | 0.553 | 0.206 | 0.221 | 0.176 |
| NCI-H23 | 0.136 | 0.127 | 0.154 | 0.137 | 0.143 | 0.134 | 0.15 | 0.129 | 0.105 | 0.114 | 0.144 | 0.164 | 0.185 | 0.117 | 0.139 | 0.119 | 0.137 | 0.121 | 0.0972 | 0.128 |
| NCI-H522 | – | 0.341 | 0.495 | – | 0.561 | – | – | – | – | – | – | 0.27 | 0.398 | – | 0.503 | 0.367 | 0.334 | 0.241 | 0.271 | 0.364 |
| NCI-H1395 | 0.291 | 0.388 | 0.31 | 0.29 | 0.364 | – | – | – | – | – | 0.279 | 0.349 | 0.364 | 0.307 | 0.389 | 0.425 | 0.388 | 0.327 | 0.381 | 0.389 |
| NCI-H1563 | 0.5 | 0.541 | 0.506 | 0.541 | 0.542 | 0.604 | 0.557 | 0.526 | 0.553 | 0.527 | 0.374 | 0.472 | 0.491 | 0.506 | 0.611 | – | – | – | – | – |
| NCI-H1648 | 0.309 | 0.279 | 0.351 | 0.314 | 0.307 | – | – | – | – | – | – | – | – | – | – | 0.408 | 0.403 | 0.289 | 0.302 | 0.31 |
| NCI-H1703 | – | – | – | – | – | 0.15 | 0.103 | 0.0957 | 0.115 | 0.0425 | – | – | – | – | – | – | – | – | – | – |
| NCI-H1793 | 0.128 | 0.176 | 0.159 | 0.153 | 0.142 | – | – | – | – | – | 0.131 | 0.201 | 0.188 | 0.147 | 0.156 | 0.308 | 0.188 | 0.166 | 0.142 | 0.179 |
| NCI-H2342 | 0.288 | 0.263 | 0.27 | 0.264 | 0.262 | – | – | – | – | – | 0.25 | 0.232 | 0.266 | 0.231 | 0.25 | 0.249 | 0.303 | 0.227 | 0.253 | 0.272 |
| SW 900 | 0.0629 | 0.1 | 0.0605 | 0.0573 | 0.119 | – | – | – | – | – | 0.0993 | 0.114 | 0.105 | 0.0942 | 0.147 | 0.125 | 0.165 | 0.137 | 0.142 | 0.168 |
